Laboratory results as given in patent publication EP4635969A1, “NOVEL GLUCOCORTICOID, METHOD FOR PREPARING SAME, AND USE THEREOF” (Tianjin Pharmaceutical Biotechnology Co., Ltd., priority 2022, dated 2024).

What was measured:
[1] = system: inflammatory bowel disease model rats; assay: Inflammatory bowel disease experiment (TNBS model): macroscopic injury score of the colon; format: in vivo; conditions: compared with the model group
Procedure: Pharmacological Example 7: Pharmacodynamic Experiment on Inflammatory Bowel Disease in Rats
Test samples: The jet-milled compounds 23 and 34 were accurately weighed and prepared as 2 mg/mL clear solutions using anhydrous ethanol, respectively. The solutions were then diluted to 0.2 mg/mL with double-distilled water as the test samples, and stored at room temperature protected from light until use.
Animals in Groups 2 to 5 were subjected to trinitrobenzene sulfonic acid (TNBS) modeling as follows: A 5% TNBS aqueous solution was adjusted to 20 mg/mL TNBS (50% ethanol solution) with alcohol and water. After fasting for 24 h, the rats were anesthetized using an inhalation anesthesia machine. A silicone hose was inserted approximately 8 cm into the anus, and then TNBS was injected at a dose of 50 mg/kg. After injection, the rats were placed vertically for 1 min to prevent the backflow of TNBS solution. Then, the rats were placed into their cages for observation until the animals recovered.
Drug administration started one day before modeling, with one dose administered 1 hour before modeling and then once a day for 5 consecutive days. […] Table 14. Animal grouping and drug administration dosages
The experiment ended on day 5 after TNBS modeling. After isoflurane anesthesia, blood was collected from the hearts, and the rats were euthanized. The abdominal cavity was rapidly opened, and the macroscopic injury scoring of the colon in rats was performed based on the adhesion, obstruction, thickening of the colonic wall, colonic congestion, and necrosis in the colon area. After clearing the colonic contents, the colonic samples were longitudinally incised. The proximal 2/3 of the colon was excised, prepared into Swiss rolls, and stored in 4% neutral buffered formalin for histopathological analysis. Tissues were trimmed, dehydrated, paraffin-embedded, and sectioned (approximately 5 µm thickness), stained with hematoxylin-eosin (HE), and observed for pathological changes. Pathologists performed blind scoring of colonic lesions.
Quantitative indices were first subjected to Bartlett's test for homogeneity of variance. When the variance was homogeneous (P > 0.05), one-way analysis of variance (ANOVA) was used for a statistical test; if there was statistical significance (P ≤ 0.05), Dunnett's t-test (Dunnett method) was used to compare intergroup differences; if there was no statistical significance (P > 0.05), the statistical analysis was concluded. When the variance was heterogeneous (P ≤ 0.05), Kruskal-Wallis H rank-sum test (K-W method) was used for statistical analysis: if there was statistical significance (P ≤ 0.05), Mann-Whitney U test (M-W method) was further performed to compare intergroup differences; if there was no statistical significance (P > 0.05), the statistical analysis was concluded.

[2] = system: inflammatory cytokines IL-6 and IL-12; assay: Anti-asthma pharmacodynamic experiment: inflammatory cytokines in bronchoalveolar lavage fluid (ELISA); format: in vivo, female BALB/c mice; conditions: compared with the model group
Procedure: (§1) Pharmacological Example 4: Pharmacodynamic Experiment on Anti-Asthma
(§2) The suspensions were stored at room temperature protected from light until use.
(§3) Positive control drug: Budesonide Suspension for Inhalation (specification: 2 mL: 1 mg; AstraZeneca Inc.; Lot No. : 327392) was diluted with injection-grade sodium chloride solution to 0.3 mg/ml as the positive control drug, and stored at room temperature protected from light until use.
(§4) Sixty female BALB/c mice underwent a one-week adaptive feeding period. Ten mice were randomly selected as the blank control group, while 50 mice were selected to establish asthma models.
(§5) From days 21 to 23 after sensitization, the mice in the model group and drug administration group were exposed to a 30-minute aerosol challenge with 5% OVA, while the mice in the blank control group were exposed to normal saline aerosol for the same duration.
At the end of airway hyperresponsiveness testing in mice, the mice were euthanized by cervical dislocation and fixed on a dissection tray. The abdomens and thoracic cavities of the mice were opened, and the skin and excess tissues of the neck were excised to expose the trachea of the mice. A small incision was made transversely on the trachea with a small scissors. A pre-treated 1 mL syringe needle was inserted and fastened with surgical thread. A 1 mL syringe was used to slowly inject 0.5 mL of pre-chilled phosphate-buffered saline (PBS) into the lungs of the mice, followed by slow aspiration. Each mouse was lavaged once, and a total of approximately 0.4 ml of lavage fluid was collected. The bronchoalveolar lavage fluid was centrifuged at 3000 rpm for 5 min. After centrifugation, the supernatant was aliquoted, and the levels of inflammatory cytokines IL-6 and IL-12 in the bronchoalveolar lavage fluid were determined using ELISA kits.
(§6) Statistical analysis was performed using SPSS software. Measurement data were expressed as mean ± standard deviation. One-way ANOVA was used for intergroup comparisons. For data with homogeneous variance, LSD test was used; for data with heterogeneous variance, Dunnett-t test was used. A value of P < 0.05 was considered statistically significant.

epidermal layer in rats = assay: Adverse reactions of continuous dermal administration: thickness of the epidermal layer (H&E sections); format: in vivo, SD rats; conditions: compared with the blank control group
Text: Pharmacological Example 10: Experiment on Adverse Reactions of Continuous Dermal Administration in Rats
Animals: SD rats, SPF grade, with an equal number of males and females, weighing 230-250 g.
Animal grouping: After adaptive feeding, the rats were randomly divided into 4 groups. […] One day before administration, the backs of rats were shaved at an area of 5 cm × 6 cm. […] The rats in the blank control group were applied with the blank matrix of corresponding mass on their backs, twice a day for a consecutive week. Table 21. Animal grouping and drug administration dosages for the experiment on adverse reactions of continuous dermal administration in rats
To examine the effects of continuous administration of the test samples on the epidermal layer, the back skin tissues were stained with hematoxylin and eosin (H&E) (magnification ×40), and the thickness of the epidermal layer was quantitatively measured based on the H&E-stained sections.

asthma model mice = assay: Anti-asthma pharmacodynamic experiment: airway hyperresponsiveness (Penh) after methacholine challenge; format: in vivo, female BALB/c mice; conditions: compared with the model group
Procedure: as §1, §2, §3, §4, §5
Airway responsiveness was measured in all groups of mice after the last challenge. The mice were placed into a plethysmography chamber, and baseline Penh values were recorded. Subsequently, the mice were challenged with aerosolized methacholine at concentrations from low to high of 0, 6.25, and 12.5 mg/mL, with an aerosol volume of 100 µ L each time for 60 s. […] Penh values were then recorded for 3 min and averaged to compare the airway responsiveness of each group of mice.
as §6

uveitis model rats = assay: Anti-uveitis pharmacodynamic experiment (LPS model): ocular pathological score; format: in vivo, male SD rats; conditions: compared with the model group
Procedure: Pharmacodynamic Experiment on Anti-Uveitis
Positive control drug: Fluorometholone Eye Drops (specification: 5 mL/5 mg; Santen Pharmaceutical (CHINA) Co., Ltd.; Lot No. : J20180068) was used as the positive control drug and stored at room temperature protected from light until use.
Fifty male SD rats underwent a one-week adaptive feeding period. […] Groups 2 to 5 were used to establish rat uveitis models by single subcutaneous injection of 1 mg/kg LPS (Salmonella; Sigma; Lot No. 0000164114) into the plantar tissue of the hindpaw. Salmonella endotoxin was dissolved in normal saline to prepare an injection solution at a concentration of 2 mg/mL, which was injected subcutaneously at 1 mg/kg into the plantar tissue of one paw of the rats. Group 1 was injected with an equal volume of normal saline.
At the end of the experiment, photos of the rats' eyes were taken using a slit-lamp microscope, and the differences in ocular lesions of rats among groups were compared and analyzed.
as §6

[3] = system: dry eye syndrome model New Zealand rabbits; assay: Dry eye syndrome experiment (benzalkonium chloride model): tear secretion test with phenol red cotton threads; format: in vivo, male New Zealand White rabbits; conditions: compared with the model group
[4] = Stability in animal lung tissue homogenate, skin tissue homogenate and aqueous humor; format: in vitro ADME
[5] = Determination of stability in plasma in vitro, human plasma (LC-MS/MS); format: in vitro ADME; conditions: same experimental conditions (human and mouse plasma)
Procedure: Pharmacological Example 3: Determination of Stability in Plasma in Vitro
The stock solution was diluted with acetonitrile to obtain a working solution at a concentration of 100 µ M. The solution should be freshly prepared prior to use and maintained at room temperature during application.
990 µ L of human and mouse plasma (N = 2) were separately pipetted and pre-incubated at 37 °C for 5 min. Then, 10 µ L of the test compound working solution was added and vortexed thoroughly (the final concentration of the test compound was 1 µ M). Immediately, 50 µ L of the plasma sample was added to 150 µ L of ice-cold precipitation agent containing the internal standard and vortexed thoroughly as the 0-time sample. The remaining plasma sample was continuously incubated at 37 °C, and 50 µ L of the plasma sample was aspirated and added to 150 µ L of ice-cold precipitation agent containing the internal standard at preset sampling time points, followed by thorough vortexing. The collected samples were stored in a freezer at -60 to -90 °C until analysis.
The concentration of the test compound was determined by LC-MS/MS, and its degradation was monitored. (semi-quantitative determination was conducted by comparing the peak area of the analyte to that of the internal standard).

IL-17 = assay: Psoriasis experiment (imiquimod model): inflammatory cytokine in serum (ELISA); format: in vivo, mice; conditions: compared with the model group

Structure (SMILES) | inflammatory response on the intestinal surface / intestinal symptoms [1] | Effects on inflammatory cytokines in bronchoalveolar lavage fluid of mice [2] | thickness of the epidermal layer after continuous dermal administration (epidermal layer in rats) | Effects on airway hyperresponsiveness (Penh values) in mice (asthma model mice) | ocular abnormalities / ocular pathological score (uveitis model rats) | tear secretion [3] | stability in animal lung tissue homogenate, skin tissue homogenate, and aqueous humor [4] | plasma instability [5] | level of IL-17 / inflammatory cytokines in psoriasis model mice (IL-17)
C[C@]12C=CC(=O)C=C1CC[C@H]1[C@@H]3C[C@H]4OC(c5ccc(CNC6COC(=O)C6)cc5)O[C@@]4(C(=O)CO)[C@@]3(C)C[C@H](O)[C@@]12F (stereo partly drawn) [Compound 21, (6aS,6bR,7S,8aS,8bS,11aR,12aS,12bS)-6b-Fluoro-7-hydroxy-8b-(2-hydroxyacetyl)-6a,8a-dimethyl-10-(4-(((5-oxotetrahydrofuran-3-yl)amino)methyl)phenyl)-1,2,6a,6b,7,8,8a,8b,11a,12,12a,12b-dodecahydro-4H-naphtho[2',1':4,5]indeno[1,2-d][1,3]dioxol-4-one] | significantly alleviated the intestinal symptoms in inflammatory bowel disease model rats | pharmacological effects similar to those of compound 23 | no significant changes in the thickness of the epidermal layer observed | significantly decreased the Penh values in mice | significantly improved ocular abnormalities | significantly increased the tear secretion | relatively stable | exhibited the characteristic of plasma instability | significantly inhibited inflammatory cytokines in the skin of psoriasis model mice
C[C@]12C=CC(=O)C=C1CC[C@H]1[C@@H]3C[C@H]4OC(c5ccc(COC6CCOC6=O)cc5)O[C@@]4(C(=O)CO)[C@@]3(C)C[C@H](O)[C@@]12F (stereo partly drawn) [Compound 16, (6aS,6bR,7S,8aS,8bS,11aR,12aS,12bS)-6b-Fluoro-7-hydroxy-8b-(2-hydroxyacetyl)-6a,8a-dimethyl-10-(4-(((2-oxotetrahydrofuran-3-yl)oxy)methyl)phenyl)-1,2,6a,6b,7,8,8a,8b,11a,12,12a,12b-do decahydro-4H-naphtho[2',1':4,5]indeno[1,2-d][1,3]dioxol-4-one] | significantly alleviated the intestinal symptoms in inflammatory bowel disease model rats | pharmacological effects similar to those of compound 23 | no significant changes in the thickness of the epidermal layer observed | significantly decreased the Penh values in mice | significantly improved ocular abnormalities | significantly increased the tear secretion | relatively stable | exhibited the characteristic of plasma instability | significantly inhibited inflammatory cytokines in the skin of psoriasis model mice
C[C@]12C=CC(=O)C=C1CC[C@H]1[C@@H]3C[C@H]4OC(c5ccc(CSC6CCOC6=O)nc5)O[C@@]4(C(=O)CO)[C@@]3(C)C[C@H](O)[C@@]12F (stereo partly drawn) [Compound 47, (6aS,6bR,7S,8aS,8bS,11aR,12aS,12bS)-6b-Fluoro-7-hydroxy-8b-(2-hydroxyacetyl)-6a,8a-dimethyl-10-(6-(((2-oxotetrahydrofuran-3-yl)thio)methyl)pyridin-3-yl)-1,2,6a,6b,7,8,8a,8b,11a,12,12a,12 b-dodecahydro-4H-naphtho[2',1':4,5]indeno[1,2-d][1,3]dioxol-4-one] | significantly alleviated the intestinal symptoms in inflammatory bowel disease model rats | pharmacological effects similar to those of compound 23 | no significant changes in the thickness of the epidermal layer observed | significantly decreased the Penh values in mice | significantly improved ocular abnormalities | significantly increased the tear secretion | relatively stable | exhibited the characteristic of plasma instability | significantly inhibited inflammatory cytokines in the skin of psoriasis model mice
C[C@]12C=CC(=O)C=C1[C@@H](F)C[C@H]1[C@@H]3C[C@H]4OC(c5ccc(CSC6CCOC6=O)cc5)O[C@@]4(C(=O)OCC#N)[C@@]3(C)C[C@H](O)[C@@]12F (stereo partly drawn) [Compound 37, Cyanomethyl (2S,6aS,6bR,7S,8aS,8bS,11aR,12aS,12bS)-2,6b-difluoro-7-hydroxy-6a,8a-dimethyl-4-oxo-10-(4-( ((2-oxotetrahydrofuran-3-yl)thio)methyl)phenyl)-1,2,4,6a,6b,7,8,8a,11a,12,12a,12b-dodecahydro-8bH-naphtho[2',1':4,5]indeno[1,2-d][1,3]dioxole-8b-carboxylate] | significantly alleviated the intestinal symptoms in inflammatory bowel disease model rats | pharmacological effects similar to those of compound 23 | no significant changes in the thickness of the epidermal layer observed | significantly decreased the Penh values in mice | significantly improved ocular abnormalities | significantly increased the tear secretion | relatively stable | exhibited the characteristic of plasma instability | significantly inhibited inflammatory cytokines in the skin of psoriasis model mice
